Assays:
[1] = test system: CC10-rtTA-VEGF165 transgenic mice; assay: VEGF-induced angiogenesis, anti-CD31 immunohistochemistry and vessel area density; assay type: in vivo, mouse; details: for Vascularity (%): VEGF-induced tissue responses, TLR agonist administration, PBS control 43
Protocol: (§1) The CC10-rtTA-VEGF165 transgenic mice used in this study were generated and used as described previously (Lee et al., 2004, Nature Medicine 10:1095-103), which reference is incorporated herein in its entirety. These animals were housed under barrier conditions in the animal facility at Yale University School of Medicine. In these experiments 6-8 week old transgenic (Tg+) animals and their transgene negative littermate controls (Tg−) were randomized to receive water with doxycycline (dox) (0.5 mg/ml) or normal water. Two weeks later they were sacrificed and the VEGF-induced phenotype was evaluated as described below (Lee et al., 2004, Nature Medicine 10:1095-103).
(§2) To define the effects of these agents on the tissue responses induced by VEGF, two experimental procedures were used. In the first, a pretreatment protocol was used. In these experiments the noted innate immunity agonist ([…] unless otherwise indicated) or its vehicle control (PBS) were administered intranasally and aspirated into the lungs of randomized Tg+ and Tg− mice starting one day before the Dox water treatment. The doses were administered to the mice every other day during the 2 week doxyxycline (dox) treatment interval.
(§3) To determine if the innate immunity agonists altered established VEGF-induced tissue responses, a “post treatment” protocol was used in selected experiments. In these experiments the innate immunity agonist was administered 2 days or 14 days after the doxycycline and VEGF-induced responses were evaluated 2 weeks later.
(§4) To define the effects of Poly(I:C) a number of protocols were employed. In most experiments, a pretreatment-2 week protocol was employed. In these experiments, WT and Tg+ mice were treated with Poly(I:C) (30 μg in 50 lambda unless otherwise indicated; Amersham Biosciences, N.J.) or vehicle control via nasal aspiration and transgene activation was accomplished via the administration of dox (0.5 mg/ml) in the animal's drinking water 24 hours later. The Poly(I:C) was administered every other day and the dox was administered continuously for up to 2 weeks.
In selected experiments a pretreatment protocol and shorter treatment interval was employed. In these experiments, WT and Tg+ mice were treated with Poly(I:C) (30 μg/mouse/dose in 50 μl) or vehicle control via nasal aspiration and transgene activation was accomplished with dox 24 hours later. The animals were then randomized to not receive or receive one additional dose of Poly(I:C) 24 hours later and dox was administered continuously during this 2 week interval.
(§5) Lastly, in selected experiments post-transgene activation protocols were employed. In these experiments dox was administered for 2 days or 2 weeks. The Poly(I:C) was then administered via intranasal aspiration every other day for 2 weeks as disclosed elsewhere herein. In selected pre-treatment and post-transgene activation experiments, unmethylated CpG (CpG-B) (Keck Center, Yale University) was also employed at similar doses. At the end of these intervals, assessments of angiogenesis (anti-CD31 immunohistochemistry), vascular permeability (Evan's blue dye extravasation, wet to dry lung weight measurements, BAL protein concentration), BAL and tissue inflammatory cell infiltration and mucus metaplasia (periodic acid-Schiff (PAS) staining, MUC5AC immunoblotting) were undertaken. In all cases experiments were designed to compare Tg− and Tg+ mice on normal water and Tg− and Tg+ mice on dox water.

[2] = test system: CC10-rtTA-VEGF165 transgenic mice; assay: VEGF-induced pulmonary hemorrhage in BAL fluids; assay type: in vivo, mouse; details: Tg+ mice, pretreatment, vs vehicle
Protocol: as §1, with “10:1095-103). […]” for “10:1095-103).”
Mice were sacrificed using intraperitoneal ketamine/xylazine injection and the trachea was cannulated and perfused with two 0.9 nil aliquots of cold saline. The cellular contents and BAL fluid were separated by centrifugation, the BAL cell number was quantitated and cell differential was assessed. […]
The lungs were removed en bloc as described elsewhere herein, inflated at 25 cm pressure with PBS containing 0.5% low melting point agarose gel, fixed in Streck solution (Streck Laboratories, La Vista, Nebr.), embedded in paraffin, sectioned and stained. […] Pulmonary hemorrhage was evaluated by quantitating BAL red blood cell number with a Coulter counter (Beckman Coulter).

[3] = test system: CC10-rtTA-VEGF165 transgenic mice; assay: BAL inflammatory cell recovery, VEGF-induced inflammation; assay type: in vivo, mouse; details: for Total cells (×10^4): VEGF-induced tissue responses, TLR agonist administration, PBS control 50
Protocol: as §1, §2, §3, §4, §5
Mice were sacrificed using intraperitoneal ketamine/xylazine injection and the trachea was cannulated and perfused with two 0.9 nil aliquots of cold saline. The cellular contents and BAL fluid were separated by centrifugation, the BAL cell number was quantitated and cell differential was assessed. The BAL fluid was stored in aliquots at −80° C.

[4] = test system: CC10-rtTA-VEGF165 transgenic mice; assay: VEGF-induced mucus metaplasia (PAS staining, BAL MUC5AC); assay type: in vivo, mouse; details: Tg+ mice, pretreatment, vs vehicle
Protocol: as §4, §5
The lungs were removed en bloc as described elsewhere herein, inflated at 25 cm pressure with PBS containing 0.5% low melting point agarose gel, fixed in Streck solution (Streck Laboratories, La Vista, Nebr.), embedded in paraffin, sectioned and stained. Hematoxylin and eosin and PAS stains were performed in the Research Histology Laboratory of the Department of Pathology at the Yale University School of Medicine. Pulmonary hemorrhage was evaluated by quantitating BAL red blood cell number with a Coulter counter (Beckman Coulter).
The levels of MUC5AC, the major airway mucin in BAL fluids, were assessed as previously described (Lee et al., 2008, Am J Respir Cell Mol Biol 39:739-746). In these evaluations, 0.1 ml of BAL fluid was slot blotted onto nitrocellulose membranes using a Minifold II slot blot apparatus (Schleicher & Schuell). After air-drying, the membrane was blocked with 5% skim milk, washed three times and incubated overnight at 4° C. with a monoclonal antibody against Mucin-5AC (45M1; NeoMarkers, Union City, Calif.). After washing, the membranes were incubated for 1 hour at room temperature with horseradish peroxidase-conjugated anti-mouse immunoglobulin (Ig)-G (Pierce). Immunoreactive mucins were detected using a chemiluminescent procedure (ECL Plus Western blotting detection system, Amersham Biosciences) according to instructions from the manufacturer.

[5] = test system: human patients; details: cited from earlier work

Row | Molecule | VEGF-induced angiogenesis (vascular density, appearance, sprouting) ([1]; Tg+ mice, pretreatment starting 1 day before dox, vs vehicle) | Vascularity (%) [1] | VEGF-induced bleeding / hemorrhage in BAL fluids [2] | total recovery of inflammatory cells during BAL / VEGF-induced inflammation ([3]; Tg+ mice, pretreatment, vs vehicle) | Total cells (×10^4) [3] | VEGF-induced mucus metaplasia (PAS stains, BAL MUC5AC accumulation) [4] | toxicity, lower dose ([5]; 10 to 50 mcg/kg) | toxicity and efficacy in human patients, high doses ([5]; 200-300 mcg/kg IV)
1 | CCNCc1nc2c(N)nc3ccccc3c2n1CC(C)(C)O [Gardiquimod] | decreased | 32.4% | decreased | decreased | 29 ×10^4 | decreased | – | –
2 | Lipopolysaccharide [LPS] | – | 32.2% | – | – | 156 ×10^4 | – | – | –
3 | poly-ICLC | – | – | – | – | – | – | little or no toxicity | toxic and largely ineffectual

Reference: patent publication US20110245323A1, “RIG-Like Helicase Innate Immunity Inhibits VEGF-Induced Tissue Responses” (Yale University, priority 2006, published 2011)
